Source: US6616922B2, “Antibacterial compositions” (The Dial Corporation, priority 2001, dated 2003)

How the values were obtained:
S. aureus = test: Time kill test (rapid germicidal activity) against S. aureus; assay type: cell-based, Staphylococcus aureus; settings: 2% active aqueous solution
Method: (§1) a) Determination of Rapid Germicidal (Time Kill) Activity of Antibacterial Products. The activity of antibacterial compositions was measured by the time kill method, whereby the survival of challenged organisms exposed to an antibacterial test composition is determined as a function of time. In this test, a diluted aliquot of the composition is brought into contact with a known population of test bacteria for a specified time period at a specified temperature. The test composition is neutralized at the end of the time period, which arrests the antibacterial activity of the composition. The percent or, alternatively, log reduction from the original bacteria population is calculated. In general, the time kill method is known to those skilled in the art. The composition can be tested at any concentration from 0-100%. The choice of which concentration to use is at the discretion of the investigator, and suitable concentrations are readily determined by those skilled in the art. […] The test sample is placed in a sterile 250 ml beaker equipped with a magnetic stirring bar and the sample volume is brought to 100 ml, if needed, with sterile deionized water. All testing is performed in triplicate, the results are combined, and the average log reduction is reported. The choice of contact time period also is at the discretion of the investigator. Any contact time period can be chosen. […] The contact temperature also can be any temperature, typically room temperature, or about 25 degrees Celsius. The bacterial suspension, or test inoculum, is prepared by growing a bacterial culture on any appropriate solid media (e.g., agar). The bacterial population then is washed from the agar with sterile physiological saline and the population of the bacterial suspension is adjusted to about 10^8 colony forming units per ml (cfu/ml). The table below lists-the test bacterial cultures used in the following tests and includes the name of the bacteria, the ATCC (American Type Culture Collection) identification number, and the abbreviation for the name of the organism used hereafter. [table] The beaker containing the test composition is placed in a water bath (if constant temperature is desired), or placed on a magnetic stirrer (if ambient laboratory temperature is desired). The sample then is inoculated with 1.0 ml of the test bacteria suspension. The inoculum is stirred with the test composition for the predetermined contact time. […] Decimal dilutions to a countable range then are made. The dilutions can differ for different organisms. Plate selected dilutions in triplicate on TSA+ plates (TSA+ is Trypticase Soy Agar with Lecithin and Polysorbate 80). […] The control count (numbers control) is determined by conducting the procedure as described above with the exception that THT is used in place of the test composition. The plate counts are converted to cfu/ml for the numbers control and samples, respectively, by standard microbiological methods. The log reduction is calculated using the formula Log reduction=log10 (numbers control)−log10 (test sample survivors).

E. coli = test: Time kill test (rapid germicidal activity) against E. coli; assay type: cell-based, Escherichia coli; settings: 2% active aqueous solution
Method: as §1

Lauramine oxide
log reduction after 30 seconds S. aureus (S. aureus; pH 4.93, 30 seconds): 2.11 log | log reduction after 30 seconds S. aureus (S. aureus; pH 5.50, 30 seconds): >4.38 log | log reduction after 30 seconds S. aureus (S. aureus; pH 6.02, 30 seconds): >4.39 log | log reduction after 30 seconds S. aureus (S. aureus; pH 6.5, 30 seconds): >4.39 log | log reduction after 30 seconds S. aureus (S. aureus; pH 7.0, 30 seconds): >4.39 log | log reduction after 30 seconds S. aureus (S. aureus; pH 7.53, 30 seconds): >4.39 log | log reduction after 30 seconds S. aureus (S. aureus; pH 8.94, 30 seconds): 4.33 log | log reduction after 30 seconds S. aureus (S. aureus; pH 10.14, 30 seconds): 3.75 log | log reduction after 30 seconds E. coli (E. coli; pH 4.93, 30 seconds): >5.32 log | log reduction after 30 seconds E. coli (E. coli; pH 5.50, 30 seconds): >4.70 log | log reduction after 30 seconds E. coli (E. coli; pH 6.02, 30 seconds): >4.70 log | log reduction after 30 seconds E. coli (E. coli; pH 6.5, 30 seconds): >4.70 log | log reduction after 30 seconds E. coli (E. coli; pH 7.0, 30 seconds): >5.32 log | log reduction after 30 seconds E. coli (E. coli; pH 7.53, 30 seconds): 0.88 log | log reduction after 30 seconds E. coli (E. coli; pH 8.94, 30 seconds): 0.27 log | log reduction after 30 seconds E. coli (E. coli; pH 10.14, 30 seconds): 0.11 log
